Source: patent US9908845B2, “Aryl ethers and uses thereof” (Peloton Therapeutics, Inc., priority 2013, dated 2018)

Tests used:
[1] = test system: 786-O renal cell carcinoma cells; test: In vivo efficacy study, renal cell carcinoma 786-O xenograft model; parameters: species or system SCID/Biege mice
[2] = target: HIF-2α HIS TAG-PASB Domain; test: HIF-2α Scintillation Proximity Assay (SPA), probe displacement; type: binding
Experimental: The percent inhibition was determined and IC50 values were calculated using the Dotmatics system based on the following equation: % inhibition=[(high control−sample)/(high control−low control)]×100.

[3] = test system: human VEGFA; test: plasma human VEGF level of 786-O xenograft bearing mice; type: in vivo; settings: 10, 30 and 100 mg/kg three times at 12 hour intervals, prior to treatment vs 12 h post treatment
[4] = test system: HIF-2α and HIF-2α-regulated genes (PAI-1, CCND1, VEGFA, and GLUT1); test: mRNA levels in tumor of 786-O xenograft bearing mice; type: in vivo; settings: renal cell carcinoma 786-O xenograft bearing mice; 10, 30 and 100 mg/kg three times at 12 hour intervals
[5] = test system: human VEGFA; test: In vivo PK/PD study: plasma level of human VEGFA by ELISA; parameters: species or system SCID/Biege mice; settings: 10, 30 or 100 mg/kg oral gavage, three times at 12 hour intervals
Experimental: (§1) About 5×10^6 renal cell carcinoma 786-O tumor cells (ATCC® CRL-1932™, VHL and HIF-1α null cell line) in PBS and Matrigel (1:1 in volume) were injected subcutaneously at the right flanks of SCID/Biege mice at 6-7 weeks of age for xenograft development. When the xenografts reached about 450 mm^3 in size, the tumor bearing mice were randomly divided into 4 groups (n=4). Plasma was collected prior to treatment by retro-orbital bleeding. […] All animals were sacrificed at 12 hours post last dose. Tumor, kidney, and plasma were collected from each animal. Total RNA was extracted from the tumors and kidneys. The mRNA levels of HIF-1α, HIF-2α and their respective target genes were determined by qRT-PCR (FIG. 1).

[6] = test system: EPO and PGK1 mRNA in mouse kidney; test: In vivo PK/PD study: mouse kidney mRNA levels by qRT-PCR; parameters: species or system SCID/Biege mice; settings: oral gavage, three times at 12 hour intervals
Experimental: as §1

[7] = test system: 786-O xenograft; test: tumor size in 786-O xenograft bearing mice, single agent; type: in vivo; settings: 3, 10, 30 and 100 mg/kg BID for 20 days

**Q.** CCN(CC)CCNC(=O)c1c(C)[nH]c(/C=C2\C(=O)Nc3ccc(F)cc32)c1C [Sutent, sutent, reference compound] was tested. Which “Tumor size Mean ± SEM” value ([1]; 40 mg/kg QD, after 20 days of dosing) did it give?
**A.** 211.59 mm^3

**Q.** For O=S(=O)(c1ccc(Oc2ccc(F)c(Cl)c2)c2c1[C@H](O)C(F)(F)C2)C(F)F [Compound 26, (S)-4-(3-Chloro-4-fluorophenoxy)-7-((difluoromethyl)sulfonyl)-2,2-difluoro-2,3-dihydro-1H-inden-1-ol], which IC50 [2] is on record?
**A.** < 5 nM

**Q.** With N#Cc1cc(F)cc(Oc2ccc(S(=O)(=O)C(F)F)c3c2CC(F)(F)[C@H]3O)c1 [Compound 15, 3-[(1S)-7-(difluoromethylsulfonyl)-2,2-difluoro-1-hydroxy-indan-4-yl]oxy-5-fluoro-benzonitrile] as the compound, how does the “plasma level of human VEGFA” value [3] read?
**A.** reduced

**Q.** What about the “Reduction of tumor size vs vehicle (t-Test)” value ([1]; all treatment groups, 786-O xenograft model) of the same compound?
**A.** statistically significant reduction

**Q.** And the “mRNA levels of HIF-2α and HIF-2α-regulated genes (PAI-1, CCND1, VEGFA, and GLUT1) in tumor” value [4]?
**A.** reduced

**Q.** And the “Human VEGFA in the plasma of 786-O tumor-bearing mice” value [5]?
**A.** significant reduction

**Q.** And the “Level of EPO mRNA in mouse kidney” value [6]?
**A.** reduced

**Q.** And the “mRNA level of PGK1 in mouse kidney” value [6]?
**A.** remained unchanged

**Q.** What about the tumor size [7] of the same compound?
**A.** tumor size reduction and regression
